Common to all, as to format: cell-based
Assay [1] concerns the target 5-hydroxytryptamine receptor 2A (Homo sapiens, UniProt P28223). Put plainly: Displacement of [3H]-ketanserin from recombinant human 5HT2A receptor expressed in CHOK1 cells measured after 1 hr by microbeta counting method. A general note: Loss of bound radioactivity is the signal in a displacement assay; it reports binding, not function.
For the next assay, the target named is D(2) dopamine receptor (Homo sapiens, UniProt P14416). Put plainly: Displacement of [3H]-raclopride from recombinant human D2L receptor expressed in HEK293 cells measured after 1 hr by microbeta counting method.
The target of assay [2] is 5-hydroxytryptamine receptor 7 (Homo sapiens, UniProt P34969). Kind of assay: Displacement of [3H]-5-CT from recombinant human 5HT7B receptor expressed in HEK293 cells measured after 1 hr by microbeta counting method.
In assay [3] the target is T1, 5-hydroxytryptamine receptor 1A (Homo sapiens, UniProt P08908).
T1 sequence (P08908 whole entry): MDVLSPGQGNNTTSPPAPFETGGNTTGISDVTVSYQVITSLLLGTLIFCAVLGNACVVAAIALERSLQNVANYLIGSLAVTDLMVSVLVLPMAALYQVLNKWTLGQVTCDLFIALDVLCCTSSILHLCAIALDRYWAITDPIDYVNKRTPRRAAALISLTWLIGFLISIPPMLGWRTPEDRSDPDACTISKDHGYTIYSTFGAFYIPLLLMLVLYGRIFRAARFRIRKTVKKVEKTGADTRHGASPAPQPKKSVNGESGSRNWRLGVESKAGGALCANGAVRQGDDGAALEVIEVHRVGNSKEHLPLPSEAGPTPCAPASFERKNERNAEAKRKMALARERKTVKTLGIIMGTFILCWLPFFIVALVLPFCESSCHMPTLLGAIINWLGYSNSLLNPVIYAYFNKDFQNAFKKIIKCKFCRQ
Kind of assay: Displacement of [3H]-8-OHDPAT from recombinant human 5HT1A receptor expressed in HEK293 cells measured after 1 hr by microbeta counting method.

Assay [4] concerns the target 5-hydroxytryptamine receptor 6 (Homo sapiens, UniProt P50406). Put plainly: Displacement of [3H]-LSD from recombinant human 5HT6 receptor expressed in HEK293 cells measured after 1 hr by microbeta counting method.

The text below walks through data of ChEMBL document CHEMBL4387768, “New dual ligands for the D2 and 5-HT1A receptors from the group of 1,8-naphthyl derivatives of LCAP” (Bioorg Med Chem Lett, 2019).

5-hydroxytryptamine receptor 6, sequence (P50406 whole entry): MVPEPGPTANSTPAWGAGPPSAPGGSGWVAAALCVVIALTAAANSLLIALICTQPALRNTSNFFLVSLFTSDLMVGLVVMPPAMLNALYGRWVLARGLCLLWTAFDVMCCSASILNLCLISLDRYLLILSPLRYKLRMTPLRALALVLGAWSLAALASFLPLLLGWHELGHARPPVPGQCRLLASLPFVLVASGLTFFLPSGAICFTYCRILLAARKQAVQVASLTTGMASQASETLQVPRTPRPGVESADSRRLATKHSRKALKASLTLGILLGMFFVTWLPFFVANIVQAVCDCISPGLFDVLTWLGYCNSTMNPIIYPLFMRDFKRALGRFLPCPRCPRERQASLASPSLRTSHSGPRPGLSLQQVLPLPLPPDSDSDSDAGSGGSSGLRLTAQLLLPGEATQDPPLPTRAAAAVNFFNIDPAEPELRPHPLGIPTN
5-hydroxytryptamine receptor 7, sequence (P34969 whole entry): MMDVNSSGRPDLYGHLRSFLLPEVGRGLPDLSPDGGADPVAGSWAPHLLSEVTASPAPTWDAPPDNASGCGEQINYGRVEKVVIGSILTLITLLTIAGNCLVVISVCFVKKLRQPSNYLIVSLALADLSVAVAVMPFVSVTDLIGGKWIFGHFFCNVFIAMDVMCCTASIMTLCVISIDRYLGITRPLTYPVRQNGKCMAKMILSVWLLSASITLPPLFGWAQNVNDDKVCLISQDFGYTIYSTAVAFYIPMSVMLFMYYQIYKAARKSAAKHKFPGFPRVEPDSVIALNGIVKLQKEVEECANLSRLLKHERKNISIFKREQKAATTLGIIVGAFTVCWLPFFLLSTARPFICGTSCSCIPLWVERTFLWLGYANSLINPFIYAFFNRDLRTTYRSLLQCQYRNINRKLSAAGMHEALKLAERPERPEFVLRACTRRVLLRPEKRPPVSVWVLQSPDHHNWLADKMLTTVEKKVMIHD
5-hydroxytryptamine receptor 2A, sequence (P28223 whole entry): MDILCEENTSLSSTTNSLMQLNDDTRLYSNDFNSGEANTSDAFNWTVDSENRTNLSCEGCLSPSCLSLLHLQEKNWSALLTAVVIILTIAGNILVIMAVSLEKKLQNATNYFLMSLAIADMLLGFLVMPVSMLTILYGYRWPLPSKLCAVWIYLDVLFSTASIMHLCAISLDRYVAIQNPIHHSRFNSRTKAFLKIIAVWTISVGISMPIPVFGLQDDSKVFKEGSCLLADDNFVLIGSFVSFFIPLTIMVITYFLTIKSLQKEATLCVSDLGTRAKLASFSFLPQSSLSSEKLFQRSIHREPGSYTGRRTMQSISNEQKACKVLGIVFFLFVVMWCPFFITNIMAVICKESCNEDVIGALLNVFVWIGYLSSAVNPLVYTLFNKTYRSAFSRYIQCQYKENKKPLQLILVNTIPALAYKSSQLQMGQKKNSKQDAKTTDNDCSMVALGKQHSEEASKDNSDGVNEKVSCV
D(2) dopamine receptor, sequence (P14416 whole entry): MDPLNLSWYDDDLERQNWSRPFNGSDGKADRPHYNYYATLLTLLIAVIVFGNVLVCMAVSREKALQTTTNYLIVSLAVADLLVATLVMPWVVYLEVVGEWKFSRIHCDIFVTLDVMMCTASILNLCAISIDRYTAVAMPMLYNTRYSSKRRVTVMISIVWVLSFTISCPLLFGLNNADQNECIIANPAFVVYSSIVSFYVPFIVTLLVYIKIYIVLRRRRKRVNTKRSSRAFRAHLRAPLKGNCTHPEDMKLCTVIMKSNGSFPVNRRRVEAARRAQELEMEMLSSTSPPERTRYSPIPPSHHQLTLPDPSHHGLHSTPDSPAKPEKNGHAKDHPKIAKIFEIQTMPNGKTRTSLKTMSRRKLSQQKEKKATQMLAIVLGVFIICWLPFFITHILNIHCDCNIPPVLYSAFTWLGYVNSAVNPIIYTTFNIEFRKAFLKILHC

Consider `COc1ccccc1N1CCN(CCCCCCn2c(=O)n3c4c(cccc42)CCC3)CC1`, for which the Ki (in general, a measure of affinity in units of concentration, obtained from inhibition or displacement) amounted to 456 nM in assay [1]; 2 nM at D(2) dopamine receptor; 291 nM in assay [2]; 19 nM in assay [3]; 3270 nM in assay [4].

In the case of `O=C1c2cccc3cccc(c23)N1CCCCCCN1CCN(c2cccc3cccnc23)CC1`, the Ki in assay [1] worked out at 222 nM; at D(2) dopamine receptor it was 82 nM; in assay [2], 119 nM; in assay [3] it was 22 nM; in assay [4] it was 999 nM.

Regarding `O=[N+]([O-])c1ccccc1N1CCN(CCCCCCN2c3cccc4cccc(c34)S2(=O)=O)CC1`, the inhibitory constant (Ki) in assay [1] worked out at 533 nM; at D(2) dopamine receptor, 264 nM; in assay [2], 822 nM; in assay [3], 482 nM; in assay [4] it was 494 nM.

Turning to `O=S1(=O)c2cccc3cccc(c23)N1CCCCCCN1CCN(c2ccccn2)CC1`, the Ki in assay [1] is 443 nM; at D(2) dopamine receptor it was 118 nM; in assay [2] it was 344 nM; in assay [3], 35 nM; in assay [4], 182 nM.

As to `CCOc1ccccc1N1CCN(CCCCCCN2c3cccc4cccc(c34)S2(=O)=O)CC1`, the inhibition constant (Ki) stood at 578 nM in assay [1]; 30 nM at D(2) dopamine receptor; 34 nM in assay [2]; 48 nM in assay [3]; 476 nM in assay [4].

For the molecule `O=C1c2cccc3cccc(c23)C(=O)N1CCCCCCN1CCN(c2ccccc2[N+](=O)[O-])CC1`, the Ki in assay [1] came out at 1920 nM; on D(2) dopamine receptor it was 141 nM; in assay [2], 710 nM; in assay [3] it was 373 nM; in assay [4] it was 1410 nM.

Take `O=C1c2cccc3cccc(c23)N1CCCCCCN1CCN(c2ccccn2)CC1`: the Ki came to 892 nM in assay [1]; 867 nM at D(2) dopamine receptor; 184 nM in assay [2]; 32 nM in assay [3]; 1460 nM in assay [4].

`CCOc1ccccc1N1CCN(CCCCCCN2C(=O)c3cccc4cccc(c34)C2=O)CC1`: the inhibitory constant (Ki) came to 461 nM in assay [1]; 27 nM at D(2) dopamine receptor; 73 nM in assay [2]; 28 nM in assay [3]; 246 nM in assay [4].

As to `O=C1c2cccc3cccc(c23)C(=O)N1CCCCCCN1CCN(c2ccccn2)CC1`, the inhibitory constant (Ki) in assay [1] turned out to be 563 nM; on D(2) dopamine receptor, 1300 nM; in assay [2], 1200 nM; in assay [3], 172 nM; in assay [4], 1970 nM.

In the case of `COc1ccc(N2CCN(CCCCCCN3C(=O)c4cccc5cccc(c45)C3=O)CC2)cc1`, the Ki is 60100 nM in assay [1]; 40000 nM on D(2) dopamine receptor; 116000 nM in assay [2]; 3570 nM in assay [3]; 5760 nM in assay [4].

In the case of `COc1cccc(N2CCN(CCCCCCN3C(=O)c4cccc5cccc3c45)CC2)c1`, the inhibition constant Ki in assay [1] is 652 nM; at D(2) dopamine receptor, 114 nM; in assay [2], 366 nM; in assay [3], 47 nM; in assay [4], 1700 nM.

For the molecule `COc1ccc(N2CCN(CCCCCCN3C(=O)c4cccc5cccc3c45)CC2)cc1`, the Ki in assay [1] worked out at 1930 nM; at D(2) dopamine receptor, 180 nM; in assay [2], 3740 nM; in assay [3], 291 nM; in assay [4], 3670 nM.

On to `O=C1c2cccc3cccc(c23)N1CCCCCCN1CCN(c2ncccn2)CC1`, for which the Ki came out at 43 nM in assay [1]; 188 nM at D(2) dopamine receptor; 475 nM in assay [2]; 94 nM in assay [3]; 5250 nM in assay [4].

For `CCOc1ccccc1N1CCN(CCCCCCN2C(=O)c3cccc4cccc2c34)CC1`, the Ki in assay [1] was 717 nM; at D(2) dopamine receptor, 11 nM; in assay [2], 84 nM; in assay [3], 22 nM; in assay [4], 1920 nM.

For `O=C1c2cccc3cccc(c23)N1CCCCCCN1CCN(c2ccccc2[N+](=O)[O-])CC1`, the inhibition constant Ki in assay [1] came to 3980 nM; at D(2) dopamine receptor, 431 nM; in assay [2], 696 nM; in assay [3], 9470 nM; in assay [4], 952 nM.

Turning to `COc1cccc(N2CCN(CCCCCCN3C(=O)c4cccc5cccc(c45)C3=O)CC2)c1`, the Ki in assay [1] stood at 334 nM; on D(2) dopamine receptor, 271 nM; in assay [2], 371 nM; in assay [3] it was 47 nM; in assay [4], 347 nM.

In the case of `COc1ccccc1N1CCN(CCCCCCN2C(=O)c3cccc4cccc(c34)C2=O)CC1`, the inhibition constant Ki was 337 nM in assay [1]; 10 nM at D(2) dopamine receptor; 266 nM in assay [2]; 20 nM in assay [3]; 671 nM in assay [4].
